Structures are written as SMILES. The source made the active and inactive calls. The calls are words filed in the database; no cut-off is given here.

In this experiment the test system is Schizosaccharomyces pombe. The experiment is described as follows: Induction of calcium signaling pathway-mediated cell growth in ppb1-deficient Schizosaccharomyces pombe h+ leu1 ura4-D18 ppb1::ura4+ at 100 uM after 3 days by filter paper disc method in presence of MgCl2. Format: functional, organism-based.
`CCCCCCCC(=O)O[C@@H]1[C@H](OC[C@@H](O)[C@@H](O)[C@H](O)[C@@H](O)CO)O[C@H](COC(=O)CCCCC)[C@@H](OC(=O)CCCCC)[C@@H]1OC(=O)CCCCC`: the result was Active.
Take `CCCCCCCC(=O)O[C@@H]1[C@H](OC[C@@H](O)[C@H](O)[C@H](O)[C@@H](O)CO)O[C@H](COC(=O)CCCCC)[C@@H](OC(=O)CCCCC)[C@@H]1OC(=O)CCCCC`: the outcome was Active.
Take `CCCCCCCC(=O)O[C@@H]1[C@H](OC[C@H](O)[C@@H](O)[C@@H](O)[C@H](O)CO)O[C@H](COC(=O)CCCCC)[C@@H](OC(=O)CCCCC)[C@@H]1OC(=O)CCCCC`: the outcome was Active.
Regarding `CCCCCCCC(=O)O[C@@H]1[C@H](OC[C@H](O)[C@@H](O)[C@H](O)[C@H](O)CO)O[C@H](COC(=O)CCCCC)[C@@H](OC(=O)CCCCC)[C@@H]1OC(=O)CCCCC`, the outcome was Active.
`CCCCCCCC(=O)O[C@@H]1[C@H](OC[C@@H](O)[C@@H](O)[C@H](O)[C@H](O)CO)O[C@H](COC(=O)CCCCC)[C@@H](OC(=O)CCCCC)[C@@H]1OC(=O)CCCCC`: the outcome was Active.
Take `CCCCCCCC(=O)O[C@@H]1[C@H](OC[C@@H](O)[C@H](O)[C@@H](O)[C@@H](O)CO)O[C@H](COC(=O)CCCCC)[C@@H](OC(=O)CCCCC)[C@@H]1OC(=O)CCCCC`: the outcome was Active.

(Values after ChEMBL document CHEMBL3102748, “Structure-activity relationship studies on acremomannolipin A, the potent calcium signal modulator with a novel glycolipid structure 2: Role of the alditol side chain stereochemistry” (Bioorg Med Chem, 2014).)
